Data: patent US20260355196A1, “INHIBITORS AND DEGRADERS OF PIP4K PROTEIN” (Larkspur Biosciences, Inc., priority 2023, published 2026)

What follows are compounds tested against T1, PIP4K2C (Homo sapiens, UniProt Q8TBX8) (assay: HiBiT PIP4K2C degradation assay in MOLT-4 cells (endogenous PIP4K2C C-terminally tagged with HiBiT)). Conditions: 6 hours of incubation time, rather than 24 hours; MOLT-4, top concentration 10 micromolar; read-out: HiBIT-degradation MOLT4 PIP4k2C DC50 (6 hours, marked *).
T1 sequence (Q8TBX8 1-421): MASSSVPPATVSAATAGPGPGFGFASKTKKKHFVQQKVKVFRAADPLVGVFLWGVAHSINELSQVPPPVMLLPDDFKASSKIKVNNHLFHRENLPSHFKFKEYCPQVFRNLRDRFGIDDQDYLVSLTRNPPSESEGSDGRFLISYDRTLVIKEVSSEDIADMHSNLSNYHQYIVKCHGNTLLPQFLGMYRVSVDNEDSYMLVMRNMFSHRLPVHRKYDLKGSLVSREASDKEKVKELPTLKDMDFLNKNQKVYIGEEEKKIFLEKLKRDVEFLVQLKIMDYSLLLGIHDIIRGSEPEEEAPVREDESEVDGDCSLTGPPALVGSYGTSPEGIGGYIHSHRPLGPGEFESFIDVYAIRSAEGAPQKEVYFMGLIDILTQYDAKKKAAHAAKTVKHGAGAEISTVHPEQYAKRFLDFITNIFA
Type: cell-based
Parameters: untagged in primary human PBMCs and monocyte-derived dendritic cells
Summary of the method: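 Cells are plated onto compound dilutions (10 points, 3-fold, top 10 micromolar) and incubated 24 or 6 hours at 37 C. Lytic HiBiT detection then quantifies tagged endogenous PIP4K2C in MOLT-4, and a Hill fit yields DC50.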

DC50, < 500 nM:
O=C1CCC(Nc2ccc(C3CCN(CC4(O)CCN(C(=O)[C@H]5CC[C@H](Nc6ncc(F)c(-c7cccc(-c8ccccc8)c7)n6)CC5)CC4)CC3)c(F)c2)C(=O)N1 (stereo partly drawn) [Compound 464, 3-((4-(1-((1-(trans-4-((4-([1,1′-biphenyl]-3-yl)-5-fluoropyrimidin-2-yl)amino)cyclohexane-1-carbonyl)-4-hydroxypiperidin-4-yl)methyl)piperidin-4-yl)-3-fluorophenyl)amino)piperidine-2,6-dione]
O=C1CCC(Nc2ccc(C3CCN([C@H]4CC[C@H](C(=O)N[C@H]5CC[C@H](Nc6ncc(F)c(-c7cccc(-c8ccccc8)c7)n6)CC5)CC4)CC3)c(F)c2)C(=O)N1 (stereo partly drawn) [Compound 660, trans-(1r,4R)—N-((1r,4R)-4-((4-([1,1′-biphenyl]-3-yl)-5-fluoropyrimidin-2-yl)amino)cyclohexyl)-4-(4-(4-((2,6-dioxopiperidin-3-yl)amino)-2-fluorophenyl)piperidin-1-yl)cyclohexane-1-carboxamide]
O=C1CCC(Nc2ccc(N3CCN([C@H]4CC[C@H](C(=O)N[C@H]5CC[C@H](Nc6ncc(F)c(-c7cccc(N8CCCOC8=O)c7)n6)CC5)CC4)CC3)c(F)c2)C(=O)N1 (stereo partly drawn) [Compound 424, trans-(1r,4R)-4-(4-(4-((2,6-dioxopiperidin-3-yl)amino)-2-fluorophenyl)piperazin-1-yl)-N-((1r,4R)-4-((5-fluoro-4-(3-(2-oxo-1,3-oxazinan-3-yl)phenyl)pyrimidin-2-yl)amino)cyclohexyl)cyclohexane-1-carboxamide]
O=C1CCC(Nc2ccc(C3CCN([C@H]4CC[C@H](NC(=O)[C@H]5CC[C@H](Nc6ncc(F)c(-c7cccc(-c8ccc[nH]c8=O)c7)n6)CC5)CC4)CC3)c(F)c2)C(=O)N1 (stereo partly drawn) [Compound 402, trans-(1r,4R)—N-((1r,4R)-4-(4-(4-((2,6-dioxopiperidin-3-yl)amino)-2-fluorophenyl)piperidin-1-yl)cyclohexyl)-4-((5-fluoro-4-(3-(2-oxo-1,2-dihydropyridin-3-yl)phenyl)pyrimidin-2-yl)amino)cyclohexane-1-carboxamide]
O=C1CCC(Nc2ccc(N3CCN(C[C@H]4CC[C@H](CC(=O)N[C@H]5CC[C@H](Nc6ncc(F)c(-c7cccc(N8CCCOC8=O)c7)n6)CC5)CC4)CC3)c(F)c2)C(=O)N1 (stereo partly drawn) [Compound 561, trans-2-((1r,4R)-4-((4-(4-((2,6-dioxopiperidin-3-yl)amino)-2-fluorophenyl)piperazin-1-yl)methyl)cyclohexyl)-N-((1r,4R)-4-((5-fluoro-4-(3-(2-oxo-1,3-oxazinan-3-yl)phenyl)pyrimidin-2-yl)amino)cyclohexyl)acetamide]
O=C1CCC(Nc2ccc(N3CCC(CC4CCN(C(=O)[C@H]5CC[C@H](Nc6ncc(F)c(-c7cccc(N8CCCCC8=O)c7)n6)CC5)CC4)CC3)c(F)c2)C(=O)N1 (stereo partly drawn) [Compound 414, trans-3-((3-fluoro-4-(4-((1-(-4-((5-fluoro-4-(3-(2-oxopiperidin-1-yl)phenyl)pyrimidin-2-yl)amino)cyclohexane-1-carbonyl)piperidin-4-yl)methyl)piperidin-1-yl)phenyl)amino)piperidine-2,6-dione]
O=C1CCC(Nc2ccc(N3CCN(CC4(F)CCN(C(=O)[C@H]5CC[C@H](Nc6ncc(F)c(-c7cccc(-n8ccccc8=O)c7)n6)CC5)CC4)CC3)c(F)c2)C(=O)N1 (stereo partly drawn) [Compound 528, trans-3-((3-fluoro-4-(4-((4-fluoro-1-(4-((5-fluoro-4-(3-(2-oxopyridin-1(2H)-yl)phenyl)pyrimidin-2-yl)amino)cyclohexane-1-carbonyl)piperidin-4-yl)methyl)piperazin-1-yl)phenyl)amino)piperidine-2,6-dione]
CN(C(=O)[C@H]1CC[C@H](N2CCN(c3ccc(NC4CCC(=O)NC4=O)cc3F)CC2)CC1)[C@H]1CC[C@H](Nc2ncc(F)c(-c3cccc(C4CC4)c3)n2)CC1 (stereo partly drawn) [Compound 478, trans-N-((trans)-4-((4-(3-cyclopropylphenyl)-5-fluoropyrimidin-2-yl)amino)cyclohexyl)-4-(4-(4-((2,6-dioxopiperidin-3-yl)amino)-2-fluorophenyl)piperazin-1-yl)-N-methylcyclohexane-1-carboxamide]
Cn1nc([C@H]2CCC(=O)NC2=O)c2ccc(C3CCN(CC4CCN(C(=O)[C@H]5CC[C@H](Nc6ncc(F)c(-c7cccc(-n8ccccc8=O)c7)n6)CC5)CC4)CC3)cc21 (single isomer, unassigned) [Compound 422]
O=C1CCC(Nc2ccc(C3CCN(CC4(O)CCN(C(=O)[C@H]5CC[C@H](Nc6ncc(F)c(-c7cccc(C8CC8)c7)n6)CC5)CC4)CC3)c(F)c2)C(=O)N1 (stereo partly drawn) [Compound 518, trans-3-((4-(1-((1-(4-((4-(3-cyclopropylphenyl)-5-fluoropyrimidin-2-yl)amino)cyclohexane-1-carbonyl)-4-hydroxypiperidin-4-yl)methyl)piperidin-4-yl)-3-fluorophenyl)amino)piperidine-2,6-dione]
Cc1ccc(=O)n(-c2cccc(-c3nc(N[C@H]4CC[C@H](C(=O)N[C@H]5CC[C@H](N6CCC(c7ccc(NC8CCC(=O)NC8=O)cc7F)CC6)CC5)CC4)ncc3F)c2)c1 (stereo partly drawn) [Compound 551, trans-N-(trans-4-(4-(4-((2,6-dioxopiperidin-3-yl)amino)-2-fluorophenyl)piperidin-1-yl)cyclohexyl)-4-((5-fluoro-4-(3-(5-methyl-2-oxopyridin-1 (2H)-yl)phenyl)pyrimidin-2-yl)amino)cyclohexane-1-carboxamide]
O=C1CCC(Nc2ccc(N3CCC(CN4CCC(C(=O)N[C@H]5CC[C@H](Nc6ncc(F)c(-c7cccc(-n8ccccc8=O)c7)n6)CC5)CC4)CC3)c(F)c2)C(=O)N1 (mixture of isomers) [Compound 433, 1-((1-(4-((2,6-dioxopiperidin-3-yl)amino)-2-fluorophenyl)piperidin-4-yl)methyl)-N-((1r,4r)-4-((5-fluoro-4-(3-(2-oxopyridin-1(2H)-yl)phenyl)pyrimidin-2-yl)amino)cyclohexyl)piperidine-4-carboxamide]
O=C1CCC(Nc2ccc(C3CCN([C@H]4CC[C@H](C(=O)N[C@H]5CC[C@H](Nc6ncc(F)c(-c7ccnc(N8CCOCC8=O)c7)n6)CC5)CC4)CC3)c(F)c2)C(=O)N1 (stereo partly drawn) [Compound 570, trans-(1r,4R)-4-(4-(4-((2,6-dioxopiperidin-3-yl)amino)-2-fluorophenyl)piperidin-1-yl)-N-((1r,4R)-4-((5-fluoro-4-(2-(3-oxomorpholino)pyridin-4-yl)pyrimidin-2-yl)amino)cyclohexyl)cyclohexane-1-carboxamide]
Cn1nc([C@@H]2CCC(=O)NC2=O)c2ccc(C3CCN(CC4CCN(C(=O)[C@H]5CC[C@H](Nc6ncc(F)c(-c7cccc(-n8ccccc8=O)c7)n6)CC5)CC4)CC3)cc21 (single isomer, unassigned) [Compound 438]

Same assay, conditions: 24 hours incubation, MOLT-4, top concentration 10 micromolar; read-out: HiBIT-degradation MOLT4 PIP4k2C 24 hours DC50

DC50, < 500 nM:
O=C1CCC(N2Cc3cc(C4CCN(CC(=O)N5CCN(C(=O)[C@H]6CCC[C@@H](Nc7ncc(Cl)c(-c8cccc(-c9ccccc9)c8)n7)C6)CC5)CC4)ccc3C2=O)C(=O)N1 (relative stereo) [Compound 54, cis-3-(5-(1-(2-(4-(3-((4-([1,1′-biphenyl]-3-yl)-5-chloropyrimidin-2-yl)amino)cyclohexane-1-carbonyl)piperazin-1-yl)-2-oxoethyl)piperidin-4-yl)-1-oxoisoindolin-2-yl)piperidine-2,6-dione]
O=C1CCC(n2c(=O)oc3cc(N4CCN(CCC5CCN(C(=O)[C@@H]6CCC[C@H](Nc7ncc(F)c(-c8cccc(-n9ccccc9=O)c8)n7)C6)CC5)CC4)ccc32)C(=O)N1 (relative stereo) [Compound 342, cis-3-(6-(4-(2-(1-(3-((5-fluoro-4-(3-(2-oxopyridin-1(2H)-yl)phenyl)pyrimidin-2-yl)amino)cyclohexane-1-carbonyl)piperidin-4-yl)ethyl)piperazin-1-yl)-2-oxobenzo[d]oxazol-3 (2H)-yl)piperidine-2,6-dione]
O=C1CCC(Nc2ccc(C3CCN(CC4CCN(CC(=O)N[C@H]5CC[C@H](Nc6ncc(F)c(-c7cccc(-c8ccc[nH]c8=O)c7)n6)CC5)CC4)CC3)c(F)c2)C(=O)N1 (stereo partly drawn) [Compound 365, trans-2-(4-((4-(4-((2,6-dioxopiperidin-3-yl)amino)-2-fluorophenyl)piperidin-1-yl)methyl)piperidin-1-yl)-N-(4-((5-fluoro-4-(3-(2-oxo-1,2-dihydropyridin-3-yl)phenyl)pyrimidin-2-yl)amino)cyclohexyl)acetamide]
O=C1CCC(n2c(=O)oc3cc(C4CCN([C@H]5CC[C@H](CNC(=O)[C@H]6CCC[C@@H](Nc7ncc(F)c(-c8cccc(-n9ccccc9=O)c8)n7)C6)CC5)CC4)ccc32)C(=O)N1 (relative stereo) [Compound 349, cis-trans-N-((4-(4-(3-(2,6-dioxopiperidin-3-yl)-2-oxo-2,3-dihydrobenzo[d]oxazol-6-yl)piperidin-1-yl)cyclohexyl)methyl)-3-((5-fluoro-4-(3-(2-oxopyridin-1(2H)-yl)phenyl)pyrimidin-2-yl)amino)cyclohexane-1-carboxamide]
